Test results as given in PMC7577125 (Antimicrobial Agents and Chemotherapy, 2020).
Where two headings read alike, the source gives them in different places.

Tests used:
HBV [1] = experiment: HBV infection of HepG2-NTCP cells; type: cell-based; conditions: Hepatitis B virus
HBV cccDNA = experiment: cccDNA formation assay in infected PHH cells (Southern blot); type: cell-based; conditions: Hepatitis B virus, 96 h, 4 days, read-out: cccDNA % of Control
HBV capsid DNA = experiment: Incoming capsid assay in HepG2-NTCP cells; type: cell-based; conditions: Hepatitis B virus, 3 h, read-out: Capsid DNA % of Control
HBV [2] = experiment: HBV RNA/DNA analyses in induced HepAD38 cells (Northern/Southern blot); type: cell-based, Hepatitis B virus; conditions: for activity at 2 µM: Hepatitis B virus, HePAD38
HBV genotype A = experiment: microbe, parasite or virus in culture; type: cell-based; conditions: Hepatitis B virus, read-out: Mean antiviral EC50
HBV genotype B = experiment: microbe, parasite or virus in culture; type: cell-based; conditions: Hepatitis B virus, read-out: Mean antiviral EC50
HBV genotype C = experiment: microbe, parasite or virus in culture; type: cell-based; conditions: Hepatitis B virus, read-out: Mean antiviral EC50
HBV genotype D = experiment: microbe, parasite or virus in culture; type: cell-based; conditions: Hepatitis B virus, read-out: Mean antiviral EC50
HBV Cp P25A = experiment: microbe, parasite or virus in culture; type: cell-based, Hepatitis B virus
HBV Cp Y38C = experiment: microbe, parasite or virus in culture; type: cell-based, Hepatitis B virus
HBV Cp I105T = experiment: microbe, parasite or virus in culture; type: cell-based, Hepatitis B virus
HBV Cp T109M = experiment: microbe, parasite or virus in culture; type: cell-based, Hepatitis B virus
HBV Cp Y118F = experiment: microbe, parasite or virus in culture; type: cell-based, Hepatitis B virus
HBV [3] = experiment: Dose response of ETV and ABI-H0731 alone and in combination in induced HepAD38 cells; type: cell-based, Hepatitis B virus
Description: Viral replication was evaluated by quantifying the levels of total HBV DNA in the cells by qPCR. […] In both cases, the data are plotted as a function of each drug’s concentration relative to its VR EC50.

CYP2B6 = biological target: T1, CYP2B6 (Homo sapiens, UniProt P20813); experiment: CYP inhibition in human liver microsomes, 2B6; type: in vitro ADME; conditions: 0.1–100 μM
T1 construct: in human liver microsomes; from tissue; host or cells: human liver microsomes
T1 sequence (P20813 whole entry): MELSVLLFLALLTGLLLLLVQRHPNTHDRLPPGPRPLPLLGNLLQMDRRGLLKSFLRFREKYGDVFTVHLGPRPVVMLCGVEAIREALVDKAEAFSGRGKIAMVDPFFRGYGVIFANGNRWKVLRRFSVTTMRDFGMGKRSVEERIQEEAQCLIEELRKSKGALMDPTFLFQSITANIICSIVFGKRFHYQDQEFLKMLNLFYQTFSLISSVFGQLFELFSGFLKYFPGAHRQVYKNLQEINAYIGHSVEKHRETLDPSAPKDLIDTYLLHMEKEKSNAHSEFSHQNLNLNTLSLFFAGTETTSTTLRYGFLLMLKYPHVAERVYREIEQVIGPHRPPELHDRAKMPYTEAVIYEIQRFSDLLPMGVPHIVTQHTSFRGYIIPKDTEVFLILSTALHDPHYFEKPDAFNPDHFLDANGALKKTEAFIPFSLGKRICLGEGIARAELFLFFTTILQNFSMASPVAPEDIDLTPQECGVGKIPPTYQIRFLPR

CYP2C9 = biological target: T2, CYP2C9 (Homo sapiens, UniProt P11712); experiment: CYP inhibition in human liver microsomes, 2C9; type: in vitro ADME; conditions: 0.1–100 μM
T2 construct: in human liver microsomes; from tissue; host or cells: human liver microsomes
T2 sequence (P11712 whole entry): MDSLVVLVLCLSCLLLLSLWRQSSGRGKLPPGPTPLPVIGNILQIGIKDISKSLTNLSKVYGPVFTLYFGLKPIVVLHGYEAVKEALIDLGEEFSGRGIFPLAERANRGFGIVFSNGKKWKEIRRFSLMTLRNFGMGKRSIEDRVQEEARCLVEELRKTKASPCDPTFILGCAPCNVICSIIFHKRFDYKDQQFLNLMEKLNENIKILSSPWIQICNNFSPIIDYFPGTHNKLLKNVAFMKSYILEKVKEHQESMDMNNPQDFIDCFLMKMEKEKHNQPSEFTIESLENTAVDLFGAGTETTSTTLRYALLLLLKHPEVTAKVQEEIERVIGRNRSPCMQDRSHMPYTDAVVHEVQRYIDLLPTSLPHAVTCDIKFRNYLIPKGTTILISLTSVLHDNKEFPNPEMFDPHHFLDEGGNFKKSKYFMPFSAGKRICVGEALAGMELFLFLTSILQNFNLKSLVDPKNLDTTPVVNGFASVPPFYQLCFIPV

[4] = biological target: pregnane X receptor (PXR) (Homo sapiens, UniProt O75469); experiment: PXR activation / CYP3A4 induction in DPX2 cells; type: in vitro ADME; conditions: 24 h
pregnane X receptor (PXR), sequence (O75469 whole entry): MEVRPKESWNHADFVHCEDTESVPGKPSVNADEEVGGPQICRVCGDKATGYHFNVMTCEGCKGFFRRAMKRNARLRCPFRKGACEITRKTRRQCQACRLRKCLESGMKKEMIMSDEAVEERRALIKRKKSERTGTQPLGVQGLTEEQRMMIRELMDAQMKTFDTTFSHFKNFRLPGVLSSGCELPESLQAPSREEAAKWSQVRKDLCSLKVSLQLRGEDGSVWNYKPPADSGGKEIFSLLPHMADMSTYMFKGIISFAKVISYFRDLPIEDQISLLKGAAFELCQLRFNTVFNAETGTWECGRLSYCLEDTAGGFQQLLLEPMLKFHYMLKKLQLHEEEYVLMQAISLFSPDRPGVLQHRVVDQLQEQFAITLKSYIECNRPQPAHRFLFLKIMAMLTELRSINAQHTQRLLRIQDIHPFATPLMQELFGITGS
Description: The determination of CYP induction potential was conducted using CPX2 cells that harbor the human PXR gene and a luciferase reporter gene linked to two promoters identified in the human 3A4 gene.

in vitro [5] = conditions: for half-life at 1 μM: hepatocytes; for half-life at 0.5 μM: microsomes
Description: In vitro intrinsic clearance (CLint) was determined as follows. […] The calculated CLint was determined from the relationship CLint = k × (volume of incubation in ml/mg microsomal protein) × (mg protein in liver/g liver weight) × (g liver weight/kg body weight). The values for liver weights, body weights, as well as hepatic blood flows (QH) across species were obtained from data reported previously by Davies and Morris ([28]). Values for liver microsome protein/liver weight for mouse, rat, dog, and monkey were […] ([27]), and that for human was 33 mg/g. The calculation used for the prediction of hepatic clearance (CLpred) is CLpred = (QH × CLint)/(QH + CLint).

[6] = rat, 1 μM
in vitro [7] = conditions: human
in vitro [8] = conditions: rat, hepatocytes
in vitro [9] = conditions: mouse, plasma
HBV [10] = experiment: microbe, parasite or virus in culture; conditions: Hepatitis B virus
CYP3A = CYP3A (Homo sapiens, UniProt P08684); experiment: CYP inhibition in human liver microsomes, 3A
CYP3A, sequence (P08684 2-503): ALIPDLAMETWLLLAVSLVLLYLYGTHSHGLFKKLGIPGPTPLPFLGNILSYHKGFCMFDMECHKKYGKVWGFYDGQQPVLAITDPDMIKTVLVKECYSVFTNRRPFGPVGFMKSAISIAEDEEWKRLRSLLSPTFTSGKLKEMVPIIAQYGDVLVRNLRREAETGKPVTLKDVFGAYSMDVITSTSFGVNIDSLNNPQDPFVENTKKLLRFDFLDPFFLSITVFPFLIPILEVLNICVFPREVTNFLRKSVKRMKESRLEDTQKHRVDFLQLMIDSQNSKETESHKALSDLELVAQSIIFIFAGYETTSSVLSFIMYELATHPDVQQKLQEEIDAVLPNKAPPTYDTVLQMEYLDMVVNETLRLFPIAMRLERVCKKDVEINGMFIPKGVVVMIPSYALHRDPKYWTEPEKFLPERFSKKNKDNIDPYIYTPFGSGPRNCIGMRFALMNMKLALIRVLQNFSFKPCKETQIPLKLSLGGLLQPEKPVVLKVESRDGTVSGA

[11] = Hepatitis B virus, Huh-7, read-out: Mean EC50

O=C(NCc1cnc(C(F)(F)F)s1)c1ccc2c(c1)NC(=O)c1ccccc1S2(=O)=O [ABI-H0731]
EC50 (HBV [1]; read-out: Mean EC50, HBeAg): 4950 nM | EC50 (HBV [1]; read-out: Mean EC50, HBsAg): 7300 nM | EC50 (HBV [1]; read-out: Mean EC50, pgRNA): 2680 nM | EC50 (HBV [1]; total intracellular viral DNA, read-out: Mean EC50, viral DNA): 307 ± 41 nM | activity at […] (HBV cccDNA; 0.37 μM): 90% | activity at 1.11 µM (HBV cccDNA; 1.11 μM): 80% | activity at 3.33 µM (HBV cccDNA; 3.33 μM): 56% | activity at 10 µM (HBV cccDNA; 10.0 μM): 15% | activity at 0.04 µM (HBV capsid DNA; 0.04 μM): 105% | activity at 0.12 µM (HBV capsid DNA; 0.12 μM): 107% | activity at […] (HBV capsid DNA; 0.37 μM): 103% | activity at 1.11 µM (HBV capsid DNA; 1.11 μM): 91% | activity at 3.33 µM (HBV capsid DNA; 3.33 μM): 73% | activity at 10 µM (HBV capsid DNA; 10.0 μM): 10% | Levels of encapsidated pgRNA by Northern blotting (HBV [2]; HepAD38, 10-fold over VR EC50): virtually undetectable | rcDNA detection by Southern blot (HBV [2]; HepAD38, 10-fold over VR EC50): could not be detected | activity at 2 µM (HBV [2]; read-out: Capsid DNA % of Control): 10% | activity at 2 µM (HBV [2]; read-out: DNA % of Control (extracted HBV DNA replication intermediates)): 1% | activity at 2 µM (HBV [2]; read-out: Encapsidated pgRNA % of Control): 4% | EC50 (HBV genotype A): 113 ± 22 nM | EC50 (HBV genotype B): 85.5 ± 10.9 nM | EC50 (HBV genotype C): 88.2 ± 27 nM | EC50 (HBV genotype D): 142 ± 48 nM | EC50 (HBV Cp P25A; [11]): 169 ± 41 nM | Fold shift (HBV Cp P25A; P25A vs wild type): 1.2 fold | EC50 (HBV Cp Y38C; [11]): 224 ± 50 nM | Fold shift (HBV Cp Y38C; Y38C vs wild type): 1.5 fold | EC50 (HBV Cp I105T; [11]): 324 ± 20 nM | Fold shift (HBV Cp I105T; I105T vs wild type): 2.2 fold | EC50 (HBV Cp T109M; [11]): > 10000 nM | Fold shift (HBV Cp T109M; T109M vs wild type): >68 fold | EC50 (HBV Cp Y118F; [11]): 2070 nM | Fold shift (HBV Cp Y118F; Y118F vs wild type): 14 fold | HBV DNA levels (HBV [3]; 60× VR EC50 (10 μM ABI-H0731), control 2.2 × 10^6): 2.1 × 10^3 copies/μl | inhibition of HBV DNA replication (HBV [3]; 60× VR EC50 (10 μM)): ~3 logs | inhibition at 1.7 µM (HBV [3]; Hepatitis B virus, HePAD38, 96 h, read-out: inhibition of HBV replication): 98% | IC50 (CYP2B6): 27700 nM | IC50 (CYP2C9): 30700 nM | PXR activation activity, % of the control activity ([4]; 10 μM): 29% | PXR activation activity, % of the control activity ([4]; 40 μM): 68% | % LBF (in vitro [5]; cynomolgus monkey, 0.5 μM): 15% | CLpred (in vitro [5]; cynomolgus monkey, 0.5 μM): 4.7 mL/min/kg | % LBF (in vitro [5]; cynomolgus monkey, 1 μM): 15% | CLpred (in vitro [5]; cynomolgus monkey, 1 μM): 4.7 mL/min/kg | % LBF (in vitro [5]; dog, 0.5 μM): 65% | CLpred (in vitro [5]; dog, 0.5 μM): 20 mL/min/kg | % LBF (in vitro [5]; dog, 1 μM): 81% | CLpred (in vitro [5]; dog, 1 μM): 25 mL/min/kg | half-life at 1 μM (in vitro [5]; dog): 0.667 h | half-life at 0.5 μM (in vitro [5]; dog): 0.622 h | % LBF (in vitro [5]; human, 0.5 μM): 13% | CLpred (in vitro [5]; human, 0.5 μM): 2.8 mL/min/kg | % LBF (in vitro [5]; human, 1 μM): 11% | CLpred (in vitro [5]; human, 1 μM): 2.3 mL/min/kg | half-life at 1 μM (in vitro [5]; human): 11.6 h | half-life at 0.5 μM (in vitro [5]; human): 6.27 h | half-life at 1 μM (in vitro [5]; monkey): 7.92 h | half-life at 0.5 μM (in vitro [5]; monkey): 5.98 h | % LBF (in vitro [5]; mouse, 0.5 μM): 21% | CLpred (in vitro [5]; mouse, 0.5 μM): 19 mL/min/kg | half-life at 0.5 μM (in vitro [5]; mouse): 2.33 h | % LBF (in vitro [5]; rat, 0.5 μM): 12% | CLpred (in vitro [5]; rat, 0.5 μM): 7.9 mL/min/kg | half-life at 0.5 μM (in vitro [5]; rat): 4.62 h | % LBF [6]: 32% | CLpred [6]: 21 mL/min/kg | recovery at 4 days, 10 μM (in vitro [7]): 67 to 84% | half-life at 1 μM (in vitro [8]): 1.75 h | fraction unbound at 6 h (in vitro [9]): 0.03 to 0.034 | EC50 (HBV [10]; HePAD38, HepAD38, 2% HPL): 200 ± 5 nM | EC50 (HBV [10]; HePAD38, HepAD38, 20% HPL): 522 ± 40 nM | IC50 (CYP3A; probe midazolam): 82300 nM | IC50 (CYP3A; probe test (so in the source)): 46200 nM
